Test results published in patent publication US9714249B2 (Novartis AG, priority 2013, dated 2017).

Columns and labels:
Settings in all cases: acetyl-histone H4 peptide
BRD2 (His-Brd2(60-472)) = BRD2 (His-Brd2(60-472)) (Homo sapiens (Human), UniProt P25440); assay: TR-FRET in-vitro binding assay for BRD2
Procedure: All assays were performed in 384 well microtiter plates. Each assay plate contained 8-point serial dilutions for 40 test compounds, plus 16 high- and 16 low controls. Liquid handling and incubation steps were done on an Innovadyne Nanodrop Express equipped with a robotic arm (Thermo CatX, Perkin Elmer/Caliper Twister II) and an incubator (Liconic STX40, Thermo Cytomat 2C450). The assay plates were prepared by addition of 50 nl per well of compound solution in 90% DMSO HummingBird nanodispenser (Zinsser Analytic). The assay was started by stepwise addition of 4.5 μl per well of bromo domain protein (50 mM HEPES, pH 7.5, 0.005% Tween20, 0.1% BSA, 50 mM NaCl, 45 nM His-Brd2(60-472) or 45 nM His-Brd3(20-477) or 45 nM His-Brd4(44-477) all proteins produced in-house) and 4.5 μl per well of peptide solution (50 mM HEPES, pH 7.5, 0.005% Tween20, 0.1% BSA, 50 mM NaCl, 60 nM acetyl-histone H4 (AcK 5, 8, 12, 16) (Biosyntan GmbH)). Reactions were incubated at 30° C. for 35 minutes. Subsequently 4.5 μl per well detection mix (50 mM HEPES, pH 7.5, 0.005% Tween20, 0.1% BSA, 50 mM NaCl, 3 nM Eu-labeled anti-His6 antibody, 21 nM streptavidin-allophycocyanin) were added. After 35 minutes incubation at 30° C., plates were measured in a Perkin Elmer EnVision multilabel reader. Concentrations causing 50% inhibition (1050) values were determined from percent inhibition values at different compound concentrations by non-linear regression analysis.
(§1) Test compounds were dissolved in DMSO (10 mM) and transferred into 1.4 mL flat bottom or V-shaped Matrix tubes carrying a unique 2D matrix. The stock solutions were stored at […] if not used immediately. For the test procedure the vials were defrosted and identified by a scanner whereby a working sheet was generated that guided the subsequent working steps. Compound dilutions were made in 96 well plates. This format enabled the assay of maximally 40 individual test compounds at 8 concentrations (single points) including 4 reference compounds, if desired (known BET inhibitors from the prior art, for this and other assays of the type disclosed herein). The dilution protocol included the production of “pre-dilution plates”, “master plates” and “assay plates”.
Pre-dilution plates: 96 polypropylene well plates were used as pre-dilution plates. A total of 4 pre-dilution plates were prepared including 10 test compounds each on the plate positions A1-A10, one standard compound at A11 and one DMSO control at A12. All dilution steps were done on a HamiltonSTAR robot. Master plates: 30 μL of individual compound dilutions including standard compound and controls of the 4 “pre-dilution plates” were transferred into a 384 “master plate” including the following concentrations 10000, 3003, 1000, 300, 100, 30, 10 and 3 μM, respectively in 90% of DMSO. Assay plates: Identical “assay plates” were then prepared by pipetting 50 nL each of compound dilutions of the “master plates” into 384-well “assay plates” by means of a HummingBird 384-channel dispenser. These plates were used directly for the assay which was performed in a total volume of 13.55 μL. This led to a final compound concentration of 37, 11, 3.7, 1.1, 0.37, 0.11, 0.037 and 0.011 μM and a final DMSO concentration of 0.37% in the assay. Cell Growth Inhibition Assay

BRD4 (His-Brd4(44-477)) = BRD4 (His-Brd4(44-477)) (Homo sapiens (Human), UniProt O60885); assay: TR-FRET in-vitro binding assay for BRD4
Procedure: All assays were performed in 384 well microtiter plates. Each assay plate contained 8-point serial dilutions for 40 test compounds, plus 16 high- and 16 low controls. Liquid handling and incubation steps were done on an Innovadyne Nanodrop Express equipped with a robotic arm (Thermo CatX, Perkin Elmer/Caliper Twister II) and an incubator (Liconic STX40, Thermo Cytomat 2C450). The assay plates were prepared by addition of 50 nl per well of compound solution in 90% DMSO HummingBird nanodispenser (Zinsser Analytic). […] Reactions were incubated at 30° C. for 35 minutes. […] After 35 minutes incubation at 30° C., plates were measured in a Perkin Elmer EnVision multilabel reader.
as §1
(§2) Pre-dilution plates: 96 polypropylene well plates were used as pre-dilution plates. A total of 4 pre-dilution plates were prepared including 10 test compounds each on the plate positions A1-A10, one standard compound at A11 and one DMSO control at A12. All dilution steps were done on a HamiltonSTAR robot. […] These plates were used directly for the assay which was performed in a total volume of 13.55 μL. […] Cell Growth Inhibition Assay

[1] = molecular target: CREBBP bromodomain (His-CREBBP (1081-1197)) (Homo sapiens (Human), UniProt Q92793); assay: AlphaScreen in-vitro binding assay for CREBBP
Procedure: In order to assess bromodomain selectivity, we set up a binding assay using the bromodomain encoded by the CREBBP gene. […] Reactions were incubated at 30° C. for 35 minutes. Subsequently 4.5 μl per well detection mix (50 mM HEPES, pH 7.5, 0.005% Tween20, 0.02% BSA, 150 mM NaCl, 45 μg/ml Ni-chelate acceptor beads, 45 μg/ml streptavidin-donor beads) (Perkin Elmer)) were added. After 60 minutes incubation at room temperature, plates were measured in a Perkin Elmer EnVision multilabel reader. IC50 values were determined from percent inhibition values at different compound concentrations by non-linear regression analysis.
as §1, §2

BRD2 (His-Brd2(60-472)), sequence (P25440 60-472, species assumed): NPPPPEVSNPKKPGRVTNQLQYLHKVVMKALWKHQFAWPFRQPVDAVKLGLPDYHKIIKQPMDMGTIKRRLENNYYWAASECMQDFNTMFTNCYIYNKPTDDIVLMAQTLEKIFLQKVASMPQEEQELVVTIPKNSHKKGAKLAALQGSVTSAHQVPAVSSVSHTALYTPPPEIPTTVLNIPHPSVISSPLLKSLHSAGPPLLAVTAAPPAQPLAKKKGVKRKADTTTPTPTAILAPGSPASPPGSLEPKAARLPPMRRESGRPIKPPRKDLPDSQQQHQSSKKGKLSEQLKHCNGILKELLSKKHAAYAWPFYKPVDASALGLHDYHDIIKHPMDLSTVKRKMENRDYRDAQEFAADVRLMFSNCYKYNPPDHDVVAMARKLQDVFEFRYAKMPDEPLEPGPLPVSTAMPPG
CREBBP bromodomain (His-CREBBP (1081-1197)), sequence (Q92793 1081-1197): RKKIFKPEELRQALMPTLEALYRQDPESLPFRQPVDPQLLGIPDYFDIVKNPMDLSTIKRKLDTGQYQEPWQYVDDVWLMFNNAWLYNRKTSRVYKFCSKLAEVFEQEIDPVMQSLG

| IC50 (BRD2 (His-Brd2(60-472))) | IC50 (BRD4 (His-Brd4(44-477))) | IC50 [1] | SMILES |
| --- | --- | --- | --- |
| 53 nM | 56 nM | 1300 nM | COc1ncccc1-n1nc2c(c1C)C(=O)N(c1cc(C)c(=O)n(C)c1)C2c1ccc(Cl)cc1 (stereo not drawn) [Example 17b, 6-(4-chlorophenyl)-5-(1,5-dimethyl-6-oxo-1,6-dihydropyridin-3-yl)-2-(2-methoxypyridin-3-yl)-3-methyl-5,6-dihydropyrrolo[3,4-c]pyrazol-4(2H)-one] |
| 35 nM | 41 nM | 1300 nM | CCOc1ncccc1-n1nc2c(c1C)C(=O)N(c1cc(C)c(=O)n(C)c1)C2c1ccc(Cl)cc1 (stereo not drawn) [Example 18b, 6-(4-chlorophenyl)-5-(1,5-dimethyl-6-oxo-1,6-dihydropyridin-3-yl)-2-(2-ethoxypyridin-3-yl)-3-methyl-5,6-dihydropyrrolo[3,4-c]pyrazol-4(2H)-one] |
| 80 nM | 100 nM | 3800 nM | Cc1nn(-c2cccnc2F)c2c1C(=O)N(c1cc(C)c(=O)n(C)c1)C2c1ccc(Cl)cc1 (stereo not drawn) [Example 19, 6-(4-chlorophenyl)-5-(1,5-dimethyl-6-oxo-1,6-dihydropyridin-3-yl)-1-(2-fluoropyridin-3-yl)-3-methyl-5,6-dihydropyrrolo[3,4-c]pyrazol-4(1H)-one] |
| 61 nM | 62 nM | 2000 nM | COc1ccc(-n2nc3c(c2C)C(=O)N(c2cc(C)c(=O)n(C)c2)C3c2ccc(Cl)cc2)cn1 (stereo not drawn) [Example 20a, 6-(4-chlorophenyl)-5-(1,5-dimethyl-6-oxo-1,6-dihydropyridin-3-yl)-2-(6-methoxypyridin-3-yl)-3-methyl-5,6-dihydropyrrolo[3,4-c]pyrazol-4(2H)-one] |
| 63 nM | 71 nM | > 11100 nM | COc1ncc(-n2nc(C)c3c2C(c2ccc(Cl)cc2)N(c2cc(C)c(=O)n(C)c2)C3=O)cn1 (stereo not drawn) [Example 21a, 6-(4-chlorophenyl)-5-(1,5-dimethyl-6-oxo-1,6-dihydropyridin-3-yl)-1-(2-methoxypyrimidin-5-yl)-3-methyl-5,6-dihydropyrrolo[3,4-c]pyrazol-4(1H)-one] |
| 100 nM | 110 nM | 4700 nM | COc1ncc(-n2nc3c(c2C)C(=O)N(c2cc(C)c(=O)n(C)c2)C3c2ccc(Cl)cc2)cn1 (stereo not drawn) [Example 21b, 6-(4-chlorophenyl)-5-(1,5-dimethyl-6-oxo-1,6-dihydropyridin-3-yl)-2-(2-methoxypyrimidin-5-yl)-3-methyl-5,6-dihydropyrrolo[3,4-c]pyrazol-4(2H)-one] |
| 160 nM | 140 nM | 2900 nM | Cc1cc(N2C(=O)c3c(C4CC4)nn(-c4ccnn4C)c3[C@H]2c2ccc(Cl)cc2)cn(C)c1=O [Example 22, (R)-6-(4-chlorophenyl)-3-cyclopropyl-5-(1,5-dimethyl-6-oxo-1,6-dihydropyridin-3-yl)-1-(1-methyl-1H-pyrazol-5-yl)-5,6-dihydropyrrolo[3,4-c]pyrazol-4(1H)-one] |
| 74 nM | 73 nM | 1700 nM | Cc1cc(N2C(=O)c3c(C4CC4)n[nH]c3[C@H]2c2ccc(Cl)cc2)cn(C)c1=O [Example 24, (R)-6-(4-chlorophenyl)-3-cyclopropyl-5-(1,5-dimethyl-6-oxo-1,6-dihydropyridin-3-yl)-5,6-dihydropyrrolo[3,4-c]pyrazol-4(1H)-one] |
| 110 nM | 91 nM | 1000 nM | COc1ncccc1-n1nc2c(c1C)C(=O)N(c1cc(C)c(=O)n(C)c1)[C@@H]2c1ccc(Cl)cc1 [Example 26, (R)-6-(4-chlorophenyl)-5-(1,5-dimethyl-6-oxo-1,6-dihydropyridin-3-yl)-2-(2-methoxypyridin-3-yl)-3-methyl-5,6-dihydropyrrolo[3,4-c]pyrazol-4(2H)-one] |
| 170 nM | 160 nM | 2200 nM | Cc1[nH]nc2c1C(=O)N(c1cc(Cl)c(=O)n(C)c1)[C@@H]2c1ccc(Cl)cc1 [Example 28, (R)-5-(5-chloro-1-methyl-6-oxo-1,6-dihydropyridin-3-yl)-6-(4-chlorophenyl)-3-methyl-5,6-dihydropyrrolo[3,4-c]pyrazol-4(2H)-one] |

| SMILES | IC50 (BRD2 (His-Brd2(60-472))) | IC50 (BRD4 (His-Brd4(44-477))) | IC50 [1] |
| --- | --- | --- | --- |
| COc1ncccc1-n1nc(C)c2c1[C@@H](c1ccc(Cl)cc1)N(c1cc(C)c(=O)n(C)c1)C2=O [Example 25, (R)-6-(4-chlorophenyl)-5-(1,5-dimethyl-6-oxo-1,6-dihydropyridin-3-yl)-1-(2-methoxypyridin-3-yl)-3-methyl-5,6-dihydropyrrolo[3,4-c]pyrazol-4(1H)-one] | 130 nM | 150 nM | 2000 nM |
